Data set [1] has as its system K562. In words: MTT cytotoxicity assay in K562 cells. It is filed as cell-based. The conditions noted are these: Homo sapiens, K562, 48 h, Table 3; MTT, 48 h, 10 point dose response; read-out: IC 50 K562. A general note: Tetrazolium assays rely on reduction of a dye to a coloured formazan, in cell work by metabolically active cells.
For a further data set, the system named is NIH3T3. In words: MTT cytotoxicity assay in NIH3T3 fibroblasts. It is filed as cell-based, mouse.
The subject of another data set is Kasumi 1. In words: Cytotoxicity in Kasumi 1 cells. Particulars: Table 2; oxalate. Type of data set: cell-based.
Another data set deals with U937. In words: Cytotoxicity in U937 cells. It is filed as cell-based. The conditions noted are these: Table 2; oxalate.
The next data set has as its system Vero. As to the kind of experiment: Cytotoxicity in Vero kidney epithelial cells. It is filed as cell-based, monkey. The procedure:
To consider a molecule as a candidate compound in cancer drug therapy, the test compound must have specific cytotoxicity towards the cancer cells without affecting normal cell growth. Therefore, all active compounds were assessed for toxicity in non-cancer cell-lines: mouse fibroblast cell line (NIH3T3) and monkey kidney epithelial cells (Vero). […] Therefore, based on safety index ([…]), 5d [Centans; based on IUPAC name prefixed with Central Drug Research Institute's signature (Cent)] was selected as a lead compound.

In data set [2] the test system is PBMCs from patients with BCR-ABL H396R mutation. In words: MTT cytotoxicity in PBMCs from CML patient with H396R BCR-ABL mutation. Type of data set: cell-based, human. The conditions noted are these: 5 μM, 48 h.
The test system of data set [3] is K562. In words: Cell cycle analysis (PI staining, flow cytometry) in K562. Particulars: 0.5 μM. Type of data set: cell-based. The procedure: Propidium iodide (PI) staining of K562 cells (A) and HL-60 cells (B) treated with vehicle (DMSO) or 0.5 μM Centans, followed by flow cytometry analysis to find % distribution of cells in different phases of the cell cycle. Data has been shown as percent of total cells from data pooled from three independent experiments. (C and D). mRNA expression of cell cycle regulatory factors—K562 (C) or HL-60 (D) cells were treated with Vehicle or Centans, followed by mRNA isolation and cDNA preparation and quantitative real-time PCR (p21, p27 and cyclin D1). Graphs represented pooled data from three independent experiments. *P<0.05, **P<0.01,***P<0.001 compared to vehicle treated control.

The next data set has as its target T1, BCR-ABL (Homo sapiens, UniProt P00519).
T1 construct: Centans causes growth arrest and apoptosis in Bcr-Abl positive K562 cells; BCR (N-terminal part of breakpoint cluster region protein, P11274); endogenous in cells; host or cells: K562; the other entry of the earlier key: BCR (P11274, Breakpoint cluster region protein)
As to the kind of experiment: BCR-ABL phosphorylation by immunoblotting in K562 cells. The conditions noted are these: 0.5 μM, 1 μM Centans or 1 μM Imatinib, 48 h, western blot. It is filed as cell-based. The procedure:
Kinase activity of Bcr-Abl is the major cause of CML, and since Centans causes growth arrest and apoptosis in Bcr-Abl positive K562 cells, phosphorylation status of Bcr-Abl which is representative of its kinase activity was measured by immunoblotting.
FIG. 3. […] ELF4E and β-actin were used as loading control.

For data set [4], the system named is K562. As to the kind of experiment: Differentiation of K562 cells (Wright-Giemsa staining). The conditions noted are these: 0.5 μM; 3, 6 and 12 days. Type of data set: cell-based. An excerpt: In order to clarify whether the inhibitory effects of Centans on the growth and cell cycle of K562 cells was followed by differentiation, Centans treated cells was stained with Wright-Giemsa stain. […] This differentiation was much more pronounced at 12d, where mature megakaryocytes were visible (FIG. 4A). Confirmation of Centans-mediated megakaryocytic differentiation was attained through measurement of expression of relevant cell differentiation markers by quantitative real time PCR. mRNA expression levels of cluster of differentiation 10 (CD10) (transiently present during B-cell maturation at early-B and pre-B lymphoblastic stages and related to megakaryocytic differentiation), CD36 (erythroid differentiation lineage), GATA2 (Over expression of GATA-2 inhibits erythroid and promotes megakaryocyte differentiation) and CD61 (megakaryocytic differentiation marker) was measured.
FIG. 4. CentANS induces Differentiation in K562 cells. […] (B) Expression of differentiation Markers—K562 cells were treated with vehicle; V (DMSO) or centANS and mRNA from these cells were isolated and reverse transcribed. cDNA was used to measure the expression CD10, GATA2, CD61, (megakaryocytic lineage markers) and CD36 (Erythroid lineage marker) by Quantitative Real time PCR, GAPDH was used as control. […]

In the next data set the test system is HCT116. As to the kind of experiment: Sulphorhodamine B assay in HCT116 colon cancer cells. Type of data set: cell-based. The conditions noted are these: Homo sapiens, HCT-116; SRB assay. On the technique in general: In SRB staining, fixed cells bind dye roughly in proportion to their protein.
The test system of a further data set is Colo205. As to the kind of experiment: Sulphorhodamine B assay in Colo205 colon cancer cells. It is filed as cell-based. The conditions noted are these: Homo sapiens, COLO 205; SRB assay.
Another data set has as its target T2, EGFR (Homo sapiens, UniProt P00533).
T2 construct: Serum starved (A,C) MCF-7 cells and (B,D) MDA-MB231 cells were pre-incubated for 1 h; endogenous in cells; host or cells: MCF-7
In words: EGF dependent EGFR phosphorylation ELISA in MDA-MB-231 cells. It is filed as cell-based. The conditions noted are these: read-out: IC50 in terms of EGFR phosphorylation. The procedure: (§1) Since EGFR and Her2 play major roles in breast cancer development and metastatis, the effect of Centans on regulation of these two factors was evaluated in MCF-7 and MDA-MB-231 cells by enzyme-linked immunosorbant assays (ELISA). As depicted in FIGS. 7. A and B, EGF dependent EGFR phosphorylation at Tyr^1068 was strongly attenuated by Centans in both MCF-7 and MDA-MB-231 cells and this effect was much stronger than that of Gefitinib (marketted EGFR inhibitor/anti-cancer drug).
(§2) FIG. 7. Inhibition of EGFR and Her2 phosphorylation by Centans in MCF-7 and MDA-MB231 cells. Serum starved (A,C) MCF-7 cells and (B,D) MDA-MB231 cells were pre-incubated for 1 h with the indicated concentrations of Centans prior to stimulation with EGF for 15 min and EGFR (A and B) or Her2 (C and D) phosphorylation were measured by ELISA. Gef=Gefitinib. All doses are in μM.

For a further data set, the target named is T3, Her2 (Homo sapiens, UniProt P04626).
T3 construct: Serum starved (A,C) MCF-7 cells and (B,D) MDA-MB231 cells were pre-incubated for 1 h; endogenous in cells; host or cells: MCF-7
In words: Her2 phosphorylation ELISA in MDA-MB-231 cells. It is filed as cell-based. The procedure: as §1, §2
On the technique in general: An ELISA detects its analyte on a solid surface through an enzyme-linked reagent.

In data set [5] the test system is CD133+ DLD1 colon cancer cells. In words: CD133+ colon cancer stem cell population by flow cytometry. Type of data set: cell-based. Particulars: 20 uM, 24 h, vehicle 15.30%. The procedure: FIG. 9. Centans reduces CD133+ colon cancer stem cells with a higher efficacy than salinomycin. DLD1 colon cancer cells were treated with indicated compounds for 24h following which the CD133+ population was assessed by flow cytometry using CD133 antibody or relevant isotype control antibody (BD biosciences) in a Becton Dickinson FACS Calibur. Numbers in the dot plot represent % CD133+ cells.

Counter-ions that a name gives are not always drawn.

T2 sequence (P00533 25-1210): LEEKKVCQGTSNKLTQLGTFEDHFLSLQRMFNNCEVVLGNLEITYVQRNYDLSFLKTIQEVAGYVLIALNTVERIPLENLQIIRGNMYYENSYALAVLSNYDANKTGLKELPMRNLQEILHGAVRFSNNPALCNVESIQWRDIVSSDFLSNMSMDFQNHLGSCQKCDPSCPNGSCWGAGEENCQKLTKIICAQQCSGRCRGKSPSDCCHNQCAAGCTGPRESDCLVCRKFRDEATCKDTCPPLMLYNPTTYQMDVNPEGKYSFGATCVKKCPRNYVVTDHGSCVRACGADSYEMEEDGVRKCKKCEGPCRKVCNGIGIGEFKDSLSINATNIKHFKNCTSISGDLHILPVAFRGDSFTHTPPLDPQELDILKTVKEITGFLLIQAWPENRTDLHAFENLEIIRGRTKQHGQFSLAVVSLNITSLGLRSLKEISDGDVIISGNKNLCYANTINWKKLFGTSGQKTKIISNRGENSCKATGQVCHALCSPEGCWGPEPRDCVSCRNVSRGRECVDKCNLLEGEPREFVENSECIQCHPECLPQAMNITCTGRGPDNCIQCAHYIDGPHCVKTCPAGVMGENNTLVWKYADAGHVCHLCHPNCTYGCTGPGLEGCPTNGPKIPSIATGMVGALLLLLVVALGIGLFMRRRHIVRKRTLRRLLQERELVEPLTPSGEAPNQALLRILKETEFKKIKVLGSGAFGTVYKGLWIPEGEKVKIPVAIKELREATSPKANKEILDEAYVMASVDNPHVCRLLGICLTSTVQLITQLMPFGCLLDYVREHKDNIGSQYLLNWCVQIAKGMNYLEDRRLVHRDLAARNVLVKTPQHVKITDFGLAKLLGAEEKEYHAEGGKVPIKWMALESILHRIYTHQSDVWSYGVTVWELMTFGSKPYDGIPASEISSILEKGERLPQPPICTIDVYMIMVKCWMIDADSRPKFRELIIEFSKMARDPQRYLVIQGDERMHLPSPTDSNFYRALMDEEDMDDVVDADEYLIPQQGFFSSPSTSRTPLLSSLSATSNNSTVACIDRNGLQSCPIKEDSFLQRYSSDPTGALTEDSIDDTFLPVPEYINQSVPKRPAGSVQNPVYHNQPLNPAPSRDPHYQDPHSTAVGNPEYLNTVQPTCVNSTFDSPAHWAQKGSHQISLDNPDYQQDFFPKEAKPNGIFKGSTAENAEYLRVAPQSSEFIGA
T3 sequence (P04626 23-1255): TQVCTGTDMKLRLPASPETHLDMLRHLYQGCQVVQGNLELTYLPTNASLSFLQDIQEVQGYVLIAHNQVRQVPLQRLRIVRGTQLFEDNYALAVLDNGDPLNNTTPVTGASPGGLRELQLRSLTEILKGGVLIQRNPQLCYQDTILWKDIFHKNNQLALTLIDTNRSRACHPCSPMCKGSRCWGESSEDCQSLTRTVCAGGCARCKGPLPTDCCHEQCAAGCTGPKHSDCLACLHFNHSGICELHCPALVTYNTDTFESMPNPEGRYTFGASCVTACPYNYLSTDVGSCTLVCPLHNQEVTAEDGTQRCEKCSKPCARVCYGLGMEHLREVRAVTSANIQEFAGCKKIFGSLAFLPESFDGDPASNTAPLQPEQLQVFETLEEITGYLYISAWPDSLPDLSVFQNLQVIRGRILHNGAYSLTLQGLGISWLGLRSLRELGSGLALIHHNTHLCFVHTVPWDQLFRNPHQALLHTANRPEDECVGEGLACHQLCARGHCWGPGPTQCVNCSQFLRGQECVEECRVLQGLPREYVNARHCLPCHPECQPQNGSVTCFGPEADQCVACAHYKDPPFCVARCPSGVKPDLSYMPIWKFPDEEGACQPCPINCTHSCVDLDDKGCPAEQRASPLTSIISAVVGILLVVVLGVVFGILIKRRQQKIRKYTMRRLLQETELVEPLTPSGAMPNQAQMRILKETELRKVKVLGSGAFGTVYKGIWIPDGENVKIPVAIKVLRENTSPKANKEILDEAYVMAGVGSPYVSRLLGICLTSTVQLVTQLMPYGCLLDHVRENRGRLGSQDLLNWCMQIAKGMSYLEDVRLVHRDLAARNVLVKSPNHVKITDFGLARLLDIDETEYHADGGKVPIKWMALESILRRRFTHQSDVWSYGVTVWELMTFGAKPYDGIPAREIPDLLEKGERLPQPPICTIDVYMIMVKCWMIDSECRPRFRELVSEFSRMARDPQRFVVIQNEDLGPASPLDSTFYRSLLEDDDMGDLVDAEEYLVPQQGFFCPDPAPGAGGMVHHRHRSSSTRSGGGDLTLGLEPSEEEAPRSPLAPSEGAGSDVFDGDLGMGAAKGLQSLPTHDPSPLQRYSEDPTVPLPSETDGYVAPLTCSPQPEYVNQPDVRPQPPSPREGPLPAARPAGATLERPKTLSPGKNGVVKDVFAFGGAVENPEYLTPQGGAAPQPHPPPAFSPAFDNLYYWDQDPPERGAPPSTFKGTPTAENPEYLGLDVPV
T1 sequence (P00519 with tags, fused parts or gaps): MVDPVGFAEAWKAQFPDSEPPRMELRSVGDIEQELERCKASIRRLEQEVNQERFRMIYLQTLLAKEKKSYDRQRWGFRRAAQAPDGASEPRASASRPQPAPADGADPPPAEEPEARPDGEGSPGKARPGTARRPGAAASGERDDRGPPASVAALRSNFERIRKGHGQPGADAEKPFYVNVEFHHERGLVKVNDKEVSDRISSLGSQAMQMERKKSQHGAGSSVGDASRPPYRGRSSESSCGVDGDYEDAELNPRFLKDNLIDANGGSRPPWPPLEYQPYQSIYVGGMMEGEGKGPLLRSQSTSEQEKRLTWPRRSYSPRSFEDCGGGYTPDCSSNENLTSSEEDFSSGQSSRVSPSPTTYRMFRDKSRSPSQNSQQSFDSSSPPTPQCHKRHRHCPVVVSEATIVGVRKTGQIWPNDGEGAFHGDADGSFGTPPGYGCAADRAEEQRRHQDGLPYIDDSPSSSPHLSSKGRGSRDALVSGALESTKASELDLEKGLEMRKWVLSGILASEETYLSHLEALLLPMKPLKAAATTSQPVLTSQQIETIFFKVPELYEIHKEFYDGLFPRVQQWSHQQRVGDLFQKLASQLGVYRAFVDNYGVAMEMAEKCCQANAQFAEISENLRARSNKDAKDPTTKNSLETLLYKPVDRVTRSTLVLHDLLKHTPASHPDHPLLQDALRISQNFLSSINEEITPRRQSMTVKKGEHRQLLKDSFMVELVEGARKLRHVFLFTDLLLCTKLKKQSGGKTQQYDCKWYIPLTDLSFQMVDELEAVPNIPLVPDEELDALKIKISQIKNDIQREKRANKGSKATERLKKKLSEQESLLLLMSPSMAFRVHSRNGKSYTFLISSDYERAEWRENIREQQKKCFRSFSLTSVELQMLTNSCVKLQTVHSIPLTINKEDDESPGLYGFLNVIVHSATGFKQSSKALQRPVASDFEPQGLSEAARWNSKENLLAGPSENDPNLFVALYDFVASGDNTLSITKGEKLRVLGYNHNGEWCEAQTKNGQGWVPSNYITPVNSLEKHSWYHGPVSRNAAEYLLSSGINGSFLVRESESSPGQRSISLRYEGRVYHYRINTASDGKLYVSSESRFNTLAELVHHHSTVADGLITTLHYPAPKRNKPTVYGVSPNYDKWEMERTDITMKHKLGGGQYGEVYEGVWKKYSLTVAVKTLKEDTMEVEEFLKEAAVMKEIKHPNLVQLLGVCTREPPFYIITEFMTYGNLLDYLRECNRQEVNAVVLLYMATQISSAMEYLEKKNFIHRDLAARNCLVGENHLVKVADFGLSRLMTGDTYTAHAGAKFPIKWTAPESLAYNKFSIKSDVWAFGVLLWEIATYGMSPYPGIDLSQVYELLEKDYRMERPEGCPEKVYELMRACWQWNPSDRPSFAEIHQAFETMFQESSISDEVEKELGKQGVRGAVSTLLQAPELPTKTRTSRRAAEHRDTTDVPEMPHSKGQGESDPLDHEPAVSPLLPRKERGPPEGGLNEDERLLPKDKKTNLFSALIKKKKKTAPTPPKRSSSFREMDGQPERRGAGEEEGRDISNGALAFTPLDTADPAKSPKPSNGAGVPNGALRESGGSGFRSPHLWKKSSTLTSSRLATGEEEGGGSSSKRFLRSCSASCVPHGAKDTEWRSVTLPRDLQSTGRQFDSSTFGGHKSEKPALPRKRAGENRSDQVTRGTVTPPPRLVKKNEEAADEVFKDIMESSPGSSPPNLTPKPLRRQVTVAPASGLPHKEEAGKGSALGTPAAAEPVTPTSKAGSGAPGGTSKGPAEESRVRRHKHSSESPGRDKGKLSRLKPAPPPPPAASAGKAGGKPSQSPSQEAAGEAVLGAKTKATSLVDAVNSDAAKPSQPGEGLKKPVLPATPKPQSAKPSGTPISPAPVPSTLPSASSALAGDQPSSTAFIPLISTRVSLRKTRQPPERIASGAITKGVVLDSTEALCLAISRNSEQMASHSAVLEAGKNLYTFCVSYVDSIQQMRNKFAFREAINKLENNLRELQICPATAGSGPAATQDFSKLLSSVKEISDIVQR

For `CCN(CC)CCO/N=C(/c1ccc(SC)cc1)c1cccc2ccccc12` [Compound 5d, (4-(methylthio)phenyl)(naphthalen-1-yl)methanone O-2-(diethylamino)ethyl oxime oxalate], the IC50 in the data set on K562 [1] is 3.61 µM; in the data set with NIH3T3 (Mus musculus, NIH3T3, Table 2, normal cell line) it was more than 20 µM; with NIH3T3 (Table 1, MTT assay after 48 h treatment, oxalate), more than 20 µM; with Kasumi 1 it was 6.78 µM; in the data set with U937 it was 8.12 µM; with Vero (Primates, Vero, Table 2, normal cell line) it was more than 25 µM. Further, the IC50 in the data set with HCT116 was 7.7 µM; with Colo205, 4.2 µM; on EGFR, 0.0128 µM. Moreover, the “cytotoxicity in non-cancer cell-line Vero” value in the data set on Vero (MTT assay, solid tumor evaluation) is “not in non-cancer cell-lines Vero and HEK-293”. Besides, the “% cell death” value in data set [2] came to 40.78%. Further, the cell cycle distribution result in the data set on K562 [3] was “G1 and apoptotic sub-populations were significantly increased”. Further, at BCR-ABL, the “phosphorylation of BCR-ABL (pBCR-ABL)” value is “dose dependently inhibited phosphorylation of BCR-ABL”. The “differentiation of K562 cells” value in the data set on K562 [4] was “capable of inducing differentiation in K562 cells in a dose-dependent manner”. In addition, the HER2 phosphorylation entry on Her2 is recorded as “significantly reduced HER2 phosphorylation in a dose-dependent manner”. Further, the “CD133+ population after treatment (minus isotype control)” value in data set [5] is on record as 2.94%.

For the origin of these results see US9994515B2, “Aryl naphthyl methanone oxime(s) and process for preparation thereof” (Council of Scientific & Industrial Research, priority 2013, dated 2018).
